Experimental data published in patent publication US6686393B1, “Pharmaceutical compositions having antiviral activity against human cytomegalovirus” (Murdock International Corporation, priority 1990, dated 2004).
Several values for one entry are separate records, joined by “and”; a condition that tells them apart may be missing. Equal values may be shown once. Entries after “also recorded” stand apart in the source; their conditions may differ. Read-outs that look alike come from different tables or passages of the source.

What was measured:
[1] = tested on: human cytomegalovirus (HCMV), strain AD-169; test: Antiviral test (plaque reduction) versus HCMV, strain AD-169, in MRC-5 cells; assay type: cell-based; settings: for Activity in initial screening against HCMV in vitro: in words; for Number of Plaques: average of two wells; for inhibition at 0.0032 µg/mL: Human betaherpesvirus 5, AD169, MRC5, 0.0032 μg/ml
[2] = tested on: HCMV, strain C8805-37 (DHPG-resistant); test: microbe, parasite or virus in culture; assay type: cell-based, human cytomegalovirus; settings: for inhibition at 10 µg/mL: Human betaherpesvirus 5, MRC5, 96 h, read-out: Percent Inhibition Compared to Controls; for inhibition at 0.01 µg/mL / inhibition at 0.032 µg/mL / inhibition at 0.1 µg/mL / inhibition at 0.32 µg/mL / inhibition at 1 µg/mL / inhibition at 3.2 µg/mL: Human betaherpesvirus 5, MRC5, read-out: Percent Inhibition Compared to Controls
[3] = tested on: human cytomegalovirus (HCMV) strain AD-169; test: Antiviral effect of different exposure times, HCMV strain AD-169 (plaque reduction); assay type: cell-based
HCMV, strain AD-169 = test: Virucidal test versus HCMV, strain AD-169; assay type: cell-based, human cytomegalovirus; settings: in words
3T3 cells = settings: mouse
[4] = tested on: murine cytomegalovirus, strain Smith MSGV; test: Antiviral test (plaque reduction) versus murine cytomegalovirus, strain Smith MSGV, in 3T3 cells; assay type: cell-based; settings: Example 8
[5] = Human betaherpesvirus 5, AD169, MRC5, read-out: % Reduction
[6] = Example 3, cells exposed 4 days
[7] = Table 9 summary, two values = two experiments
[8] = Table 10 summary, DHPG resistant HCMV test
[9] = 10 μg/ml, Example 2, ethanol stock (protohypericin in DMSO), cells exposed 6 or more days
[10] = Human betaherpesvirus 5, AD169, MRC5, 0.01 μg/ml, Example 2, read-out: Percent Inhibition of Plaque Numbers (Compared to Virus Controls)
[11] = Human betaherpesvirus 5, AD169, MRC5, 0.032 μg/ml, Example 2, read-out: Percent Inhibition of Plaque Numbers (Compared to Virus Controls)
[12] = Human betaherpesvirus 5, AD169, MRC5, 0.1 μg/ml, Example 2, read-out: Percent Inhibition of Plaque Numbers (Compared to Virus Controls)
[13] = Human betaherpesvirus 5, AD169, MRC5, 0.32 μg/ml, Example 2, read-out: Percent Inhibition of Plaque Numbers (Compared to Virus Controls)
[14] = Human betaherpesvirus 5, AD169, MRC5, 1.0 μg/ml, Example 2, read-out: Percent Inhibition of Plaque Numbers (Compared to Virus Controls)
[15] = statement in words on the plaque reduction results
[16] = 0.0032 μg/ml, Example 1, DMSO stock
[17] = 0.1 μg/ml, Example 1, DMSO stock
[18] = 0.32 μg/ml, Example 1, DMSO stock
[19] = 1.0 μg/ml, Example 1, DMSO stock
[20] = 3.2 μg/ml, Example 1, DMSO stock
[21] = 10 μg/ml, Example 1, DMSO stock
[22] = Human betaherpesvirus 5, AD169, MRC5, 0.1 μg/ml, Example 1, DMSO stock, read-out: % Inhibition
[23] = Human betaherpesvirus 5, AD169, MRC5, 0.32 μg/ml, Example 1, DMSO stock, read-out: % Inhibition
[24] = Human betaherpesvirus 5, AD169, MRC5, 1.0 μg/ml, Example 1, DMSO stock, read-out: % Inhibition
[25] = Human betaherpesvirus 5, AD169, MRC5, 3.2 μg/ml, Example 1, DMSO stock, read-out: % Inhibition
[26] = Human betaherpesvirus 5, AD169, MRC5, 10 μg/ml, Example 1, DMSO stock, read-out: % Inhibition
[27] = 0.32 μg/ml (second line so printed, r16, below 0.1)

O=C1c2ccccc2C(=O)c2c1ccc(O)c2O [Alizarin, alizarin] was tested, and the “Activity against HCMV” value [1] was “show activity; also recorded: active”, the inhibition at 0.01 µg/mL [1, 5] was 0% and the inhibition at 0.032 µg/mL [1, 5] was 0%. It also gave an inhibition at 0.1 µg/mL [1, 5] of 0%, an inhibition at 0.32 µg/mL [1, 5] of 0% and an inhibition at 1 µg/mL [1, 5] of 0%. The inhibition at 3.2 µg/mL [1, 5] was 0%, the inhibition at 10 µg/mL [1, 5] was 96% and the inhibition at 10 µg/mL [2] was 97%. For the same molecule, the inhibition at 0.01 µg/mL [2] was 0%, the inhibition at 0.032 µg/mL [2] was 19% and the inhibition at 0.1 µg/mL [2] was 0%. It also gave an inhibition at 0.32 µg/mL [2] of 0%, an inhibition at 1 µg/mL [2] of 21% and an inhibition at 3.2 µg/mL [2] of 75%. For the same molecule, the CD50 (MRC-5 cells; [6]) was over 10 µg/mL, the CD50 (MRC-5 cells; Example 5) was > 10 µg/mL and ~13 µg/mL and the CD50 (MRC-5 cells; [7]) was over 10 µg/mL. The CD50 (MRC-5 cells; [8]) was over 10 µg/mL.
For Cc1cc(O)c2c(c1)Cc1cc(O)cc(O)c1C2=O [Emodin Anthrone, emodin anthrone], the “Percent Inhibition of Plaque Numbers (Compared to Virus Controls)” value (“Percent Inhibition of Plaque Numbers” for short) ([1]; 3.2 μg/ml, Example 2) was “toxic”, the “Percent Inhibition of Plaque Numbers” value [1, 9] was “toxic” and the inhibition at 0.01 µg/mL [1, 10] was 0%. It also gave an inhibition at 0.032 µg/mL [1, 11] of 0%, an inhibition at 0.1 µg/mL [1, 12] of 0% and an inhibition at 0.32 µg/mL [1, 13] of 0%. The inhibition at 1 µg/mL [1, 14] was 0%, the “Activity in initial screening against HCMV in vitro” value (“Activity in initial screening” for short) [1] was “not active” and the “Activity against DHPG resistant HCMV strain” value [2] was “shows activity; also recorded: active”. For the same molecule, the “Percent Inhibition Compared to Controls” value [2] was “toxic”, the inhibition at 0.01 µg/mL [2] was 0% and the inhibition at 0.032 µg/mL [2] was 0%. It also gave an inhibition at 0.1 µg/mL [2] of 0%, an inhibition at 0.32 µg/mL [2] of 0% and an inhibition at 1 µg/mL [2] of 24%. The inhibition at 3.2 µg/mL [2] was 100% and the CD50 (MRC-5 cells; human, 4 days) was 2.6 µg/mL.
With Cc1cc(O)c2c(c1)C(C1c3cc(C)cc(O)c3C(=O)c3c(O)cc(O)cc31)c1cc(O)cc(O)c1C2=O (stereo not shown) [Emodin Bianthrone (mixed), emodin bianthrone] the Plaque reduction ([3]; 4 hour exposure to the cells) was about 60%, the “Exposure time at which complete inhibition of plaques is seen” value ([3]; concentration chosen to cause 100% plaque reduction on full exposure) was 6 h and the Antiviral effect ([3]; only 2 hours of exposure) was “no effect”. The “Virucidal activity against HCMV” value (HCMV, strain AD-169) was “negligible virucidal activity”, the “Percent Inhibition of Plaque Numbers” value ([1]; 0.01 μg/ml, Example 2) was 0% and the “Percent Inhibition of Plaque Numbers” value ([1]; 0.032 μg/ml, Example 2) was 0%. For the same molecule, the “Percent Inhibition of Plaque Numbers” value ([1]; 0.1 μg/ml, Example 2) was 0%, the “Percent Inhibition of Plaque Numbers” value ([1]; 0.32 μg/ml, Example 2) was 0% and the “Percent Inhibition of Plaque Numbers” value ([1]; 1.0 μg/ml, Example 2) was 100%. The “Percent Inhibition of Plaque Numbers” value ([1]; 3.2 μg/ml, Example 2) was “toxic”, the “Percent Inhibition of Plaque Numbers” value [1, 9] was “toxic” and the “Activity in initial screening” value [1] was “active”. For the same molecule, the “Activity against HCMV” value [1, 15] was “show activity; also recorded: good biological activity”, the “Activity against DHPG resistant HCMV strain” value [2] was “retain essentially the same activity” and the CD50 (MRC-5 cells; Example 2, cells exposed 6 or more days) was 1.1 µg/mL. It also gave a CD50 (MRC-5 cells; [6]) of 1.8 µg/mL, a CD50 (MRC-5 cells; [7]) of 1.1 µg/mL and a CD50 (MRC-5 cells; [8]) of 1.8 µg/mL.
For Cc1cc(O)c2c(c1)C(=O)c1cc(O)cc(O)c1C2=O [Emodin, emodin], the “Number of Plaques” value [1, 16] was 79, the “Number of Plaques” value [1, 17] was 72 and the “Number of Plaques” value [1, 18] was 78. The “Number of Plaques” value [1, 19] was 22, the “Number of Plaques” value [1, 20] was 0 and the “Number of Plaques” value [1, 21] was 0. For the same molecule, the “Percent Inhibition of Plaque Numbers” value [1, 9] was “toxic”, the inhibition at 0.0032 µg/mL ([1]; Example 1, DMSO stock) was 0% and the inhibition at 0.01 µg/mL [1, 10] was 0%. The inhibition at 0.032 µg/mL [1, 11] was 0%, the inhibition at 0.1 µg/mL [1, 22] was 9% and the inhibition at 0.1 µg/mL [1, 12] was 0%. It also gave an inhibition at 0.32 µg/mL [1, 23] of 1%, an inhibition at 0.32 µg/mL [1, 13] of 0% and an inhibition at 1 µg/mL [1, 24] of 72%. The inhibition at 1 µg/mL [1, 14] was 39%, the inhibition at 3.2 µg/mL [1, 25] was 100% and the inhibition at 3.2 µg/mL ([1]; Human betaherpesvirus 5, AD169, MRC5, 3.2 μg/ml, Example 2, read-out: Percent Inhibition of Plaque Numbers (Compared to Virus Controls)) was 100%. For the same molecule, the inhibition at 10 µg/mL [1, 26] was 100%, the “Activity against HCMV” value [1, 15] was “show activity” and the “Activity against HCMV” value ([1]; statement in words on the plaque reduction results, listed as emodin) was “anti-HCMV activity”. The “Activity against DHPG resistant HCMV strain” value [2] was “retain essentially the same activity”, the “Percent Inhibition Compared to Controls” value [2] was “toxic” and the inhibition at 0.01 µg/mL [2] was 0%. For the same molecule, the inhibition at 0.032 µg/mL [2] was 0%, the inhibition at 0.1 µg/mL [2] was 0% and the inhibition at 0.32 µg/mL [2] was 0%. The inhibition at 1 µg/mL [2] was 46%, the inhibition at 3.2 µg/mL [2] was 100% and the CD50 (MRC-5 cells; human, 4 days) was 3.4 µg/mL.
Cc1cc(O)c2c(=O)c3c(O)cc(O)c4c5c(O)cc(O)c6c(=O)c7c(O)cc(C)c8c1c2c(c34)c(c78)c65 [Hypericin, hypericin] was tested, and the “Number of Plaques” value [1, 16] was 72, the “Number of Plaques” value [1, 17] was 72 and the “Number of Plaques” value [1, 18] was 53. The “Number of Plaques” value [1, 19] was 53, the “Number of Plaques” value [1, 20] was 6 and the “Number of Plaques” value [1, 21] was 0. For the same molecule, the inhibition at 0.0032 µg/mL ([1]; Example 1, DMSO stock) was 9%, the inhibition at 0.01 µg/mL [1, 10] was 0% and the inhibition at 0.032 µg/mL [1, 11] was 0%. For the same molecule, the inhibition at 0.1 µg/mL [1, 22] was 9%, the inhibition at 0.1 µg/mL [1, 12] was 0% and the inhibition at 0.32 µg/mL [1, 23] was 33%. For the same molecule, the inhibition at 0.32 µg/mL [1, 13] was 0%, the inhibition at 1 µg/mL [1, 24] was 33% and the inhibition at 1 µg/mL [1, 14] was 63%. For the same molecule, the inhibition at 3.2 µg/mL [1, 25] was 92%, the inhibition at 10 µg/mL [1, 26] was 100% and the “Activity in initial screening” value [1] was “active”. The CD50 (3T3 cells) was over 10 µg/mL, the inhibition at 10 µg/mL [2] was 98% and the inhibition at 0.01 µg/mL [2] was 0%. For the same molecule, the inhibition at 0.032 µg/mL [2] was 0%, the inhibition at 0.1 µg/mL [2] was 0% and the inhibition at 0.32 µg/mL [2] was 18%. The inhibition at 1 µg/mL [2] was 52%, the inhibition at 3.2 µg/mL [2] was 93% and the CD50 (MRC-5 cells; Example 1, DMSO stock) was “≈10 μg/ml”. The CD50 (MRC-5 cells; [6]) was “˜10 μg/ml”, the “% Reduction” value ([4]; 0.1 μg/ml) was 0% and the “Number of Plaques” value ([4]; 0.1 μg/ml) was 19. The “% Reduction” value ([4]; 0.32 μg/ml (row r14)) was 0%, the “Number of Plaques” value ([4]; 0.32 μg/ml (row r14)) was 22 and the “% Reduction” value [4, 27] was 0%. The “Number of Plaques” value [4, 27] was 25, the “% Reduction” value ([4]; 1.0 μg/ml) was 0% and the “Number of Plaques” value ([4]; 1.0 μg/ml) was 19. For the same molecule, the “% Reduction” value ([4]; 3.2 μg/ml) was 0%, the “Number of Plaques” value ([4]; 3.2 μg/ml) was 15 and the “% Reduction” value ([4]; 10 μg/ml) was 100%. The “Number of Plaques” value ([4]; 10 μg/ml) was 0.
